How the values were obtained:
[1] = Parallel artificial membrane permeability assay (PAMPA); assay type: in vitro ADME; conditions: 10 uM, pH 7.4, four hours
Procedure: 4.9 Study of membrane permeability of single-ligand and dual-ligand PROTACs Parallel artificial membrane permeability assay (PAMPA) is a non-cell based assay designed to predict passive, transcellular permeability of a test compound through a PVDF membrane filter pretreated with lipid. At a given pH a log Pe (log of effective permeability) can be determined by a UV spectrophotometer. […]
is carried out in the company of Eurofins Panlabs, 6 Research Park Dr. St. Charles, MO 63304, U.S.A. The results are attached as an excel file.
Sample preparation The test compound is prepared from a 10 mM DMSO stock solution and diluted to a single final concentration of 10 uM in donor buffer. The donor solution is placed in contact with the acceptor buffer at a single pH = 7.4 with the membrane in between and the sandwich is incubated for four hours at ambient temperature.
Reference compounds Ketoprofen, propranolol and furosemide. The reference compounds yield log Pe (10-6 cm/s) values that cover the typical range of the assay from high (Propranolol), mid (Ketoprofen) to low (Furosemide) permeability.
Analytical method UV/Vis spectrophotometer
The UV absorption is measured from 250 to 500 nm for both donor and acceptor plate.
Adjustments to the method may be made as necessary to improve detection or UV spectrum.
Data analysis The amount of compound UV absorbance is determined in the donor plate prior to starting the experiment for each compound. The UV absorbance was measured from the (1 picture or pasted object on this page, not shown here) […]
donor and acceptor plate after a four hour incubation time. The log Pe was calculated using […]
4.10 Statistical Analysis.
Data analyses were performed using GraphPad Prism 9 software. The results are presented as the mean ± standard deviation (SD) or standard error of mean (SEM). All statistical analyses were evaluated with one-way analysis of variance (ANOVAs), or unpaired Student’s t-test. The difference was considered statistically significant when P < 0.05.

[2] = tested on: BRD2, BRD3 and BRD4; experiment: Mass spectrometry proteomics in A549 cells; assay type: cell-based, human; conditions: 10 nM, 4 hours, 7592 proteins quantified
Procedure: A549 cells in DMEM medium were seeded at 1×10^6 cells on a 6-well plate 24 h before […]
volume of DMSO. After 4 h, the cells were digested by trypsin, centrifuged at 250g for 5min and washed three times with PBS. Cells were resuspended in lysis buffer (50 mM triethylammonium bicarbonate (TEAB), 5% SDS (pH 7.5)), then sonicated, and clarified with centrifugation of 13,000g for 8 minutes. Each sample was reduced with 20 mM DTT, then warmed the solution first at 95 °C for 10 minutes and then at 60 °C for 1 hour. The reduced proteins were alkylated with 40 mM iodoacetamide (IAA) in the dark for 30 minutes. Then samples were acidified with 1.2% aqueous phosphoric acid and mixed with 6× volumes of 90% methanol, 100 mM TEAB, pH 7.1 (S-Trap binding buffer). The samples were loaded onto the (1 picture or pasted object on this page, not shown here)

[3] = tested on: A549 xenograft; experiment: A549 xenograft mouse model, tumor growth; assay type: in vivo; conditions: i.p.
Procedure: 4.7 Therapeutic anti-tumor evaluation
Animal experiments were carried out in accordance with the regulatory guidelines of the Ethics Committee of the Ghent University Hospital. 30 female Swiss Nude Immunodeficient mice (Crl:NU(Ico)-Foxn1nu) of 5 weeks-6 weeks old (Charles River) were subcutaneously injected with […] A549 (1:1 serum free DMEM medium: Matrigel (Corning)). 10 days post inoculation ,mice were randomized into five groups (6 mice/group) with equal average tumor volume and treatment was started: (1) the control group: Vehicle(20% PEG400 and 5% […]
2J2V group (0.1 mg/kg), (5) the 2J2V group(0.5 mg/kg).Mice were treated on Day 0, Day 2, Day 4, Day 11, Day 18 by intraperitoneal injection. Tumor growth was monitored every 3 days by caliper, and the tumor volume was calculated as 1/2 × length × width2. Body weight was monitored every 3 days by weighing scale. […]
The reduced […]
proteins were alkylated with 40 mM iodoacetamide (IAA) in the dark for 30 minutes. Then samples were acidified with 1.2% aqueous phosphoric acid and mixed with 6× volumes of 90% methanol, 100 mM TEAB, pH 7.1 (S-Trap binding buffer). The samples were loaded onto the (1 picture or pasted object on this page, not shown here)

[4] = Mouse serum stability by HPLC-MS/MS; assay type: in vitro ADME; conditions: after 2 hours of incubation, 37°C
Procedure: Figure S7. Dual-ligand PROTACs inhibit cancer cell growth in 2D and 3D in vitro cell cultures.
(A) 2D-cultured SKOV-3 were treated with an escalating dose of PROTACs for 48h. Cell viability was assessed by CellTiter-Glo 2D assay. EC50 values were calculated from fitted curves. (B) HCT116 spheroids were treated with an escalating dose of PROTACs for 72h (equivalent volume of DMSO as control group). Representative transmitted microscopy images at the dose of 10nM. (C) Cell viability was assessed by Cell Titer-Glo 3D assay. Both experiments were performed as three independent replicates. (D) 2D-cultured A549 cells were treated with an escalating dose of PROTACs equipped with similar linker length as dual-ligand PROTACs. Cell viability was assessed by CellTiter-Glo 2D assay.
EC50 values were calculated from fitted curves.
Eurofins Panlabs, 6 Research Park Dr. St. Charles, MO 63304, U.S.A. Compounds were incubated in the mouse serum at 37°C for certain time, and at 0, 0.5, 1, 1.5, 2 hours post incubation, the mouse serum was analyzed by HPLC-MS/MS according to the reference: Di, L. et al. (2005), Int. J. Pharm., 297 (1-2): 110-119. […] Samples were analyzed by HPLC-MS/MS and peak areas were recorded for each analyte. The area of precursor compound remaining after each of the time points relative to the amount remaining at time zero, expressed as percent, is calculated. […]

SMILES | membrane permeability [1] | BET protein abundance change in proteome [2] | tumor growth ([3]; higher dose of 0.5 mg kg−1, Swiss nude mice) | compound remained intact in mouse serum [4] [%] | anti-tumor activity ([3]; 0.5 and 0.1 mg kg−1, Swiss nude mice)
Cc1sc2c(c1C)C(c1ccc(Cl)cc1)=N[C@@H](CC(=O)NCCOCCOCCNC(=O)C[C@H](NC(=O)COCCOCCOCCOCCn1cc(CCC(=O)N[C@@H](CC(=O)NCCOCCOCCNc3cccc4c3C(=O)N(C3CCC(=O)NC3=O)C4=O)C(=O)NCCOCCOCCNc3cccc4c3C(=O)N(C3CCC(=O)NC3=O)C4=O)nn1)C(=O)NCCOCCOCCNC(=O)C[C@@H]1N=C(c3ccc(Cl)cc3)c3c(sc(C)c3C)-n3c(C)nnc31)c1nnc(C)n1-2 (stereo partly drawn) [2J2P] | high membrane permeability |  |  |  | 
Cc1ncsc1-c1ccc(C(C)NC(=O)C2CC(O)CN2C(=O)C(NC(=O)COCCOCCNC(=O)CC(NC(=O)CCc2cn(CCOCCOCCOCCOCC(=O)NC(CC(=O)NCCOCCOCCNC(=O)CC3N=C(c4ccc(Cl)cc4)c4c(sc(C)c4C)-n4c(C)nnc43)C(=O)NCCOCCOCCNC(=O)CC3N=C(c4ccc(Cl)cc4)c4c(sc(C)c4C)-n4c(C)nnc43)nn2)C(=O)NCCOCCOCC(=O)NC(C(=O)N2CC(O)CC2C(=O)NC(C)c2ccc(-c3scnc3C)cc2)C(C)(C)C)C(C)(C)C)cc1 (stereo not drawn) [2J2V] | very limited membrane permeability | top proteins being degraded the most | potent reduction in tumor growth | 88 | 
Cc1ncsc1-c1ccc(CNC(=O)C2CC(O)CN2C(=O)C(NC(=O)COCCOCCOCCNC(=O)CC2N=C(c3ccc(Cl)cc3)c3c(sc(C)c3C)-n3c(C)nnc32)C(C)(C)C)cc1 (stereo not drawn) [MZ1, reference compound] | very limited membrane permeability | much lower change in BET protein abundance |  | 95 | did not exhibit significant anti-tumor activity

From PMC11462456 (Chemical Science, 2024)
